Patent publication US12024507B2, “Compounds as GLP-1R agonists” (Terns Pharmaceuticals, Inc., priority 2021, dated 2024)

Experiments:
Assay type in all cases: in vitro ADME
[1] = Metabolic stability in rat hepatocytes; settings: cryopreserved hepatocytes, 1×10^6 cells/mL; for CLint scaled at 1 μM: intrinsic clearance; for half-life at 1 μM: read-out: Rat T1/2
Protocol: (§1) Test compounds were incubated in rat and human hepatocytes and stability was assessed from the substrate […] approach. Test compounds were dissolved in dimethyl sulfoxide (DMSO) to create a 10 mM Stock, and then further diluted to create a 1000×Working Stock of 1 mM with DMSO in 96-well plates for test compounds and the positive control (midazolam). Vials containing cryopreserved hepatocytes were removed from the liquid nitrogen tank and immediately immersed in a 37° C. water bath. The vials were shaken gently until the contents had thawed and were then immediately emptied into 48 mL of pre-warmed HT Medium in a 50 mL conical tube. Cells remaining in the vial were resuspended with 1.0 mL of pre-warmed HT Medium and added to the conical tube. The tube was capped and then gently inverted several times to resuspend the hepatocytes. The cell suspension was centrifuged at 50×g at room temperature for 5 minutes and the supernatant discarded. The cell pellet was loosened by gently swirling the centrifuge tube and was re-suspended in 4 mL of warm Dulbecco's Modified Eagle medium (DMEM). Cell density was determined by a cell counter by Nexcelom, and DMEM medium was added to obtain a target density of 1×10^6 cells/mL. The assay was carried out in 96-well microtiter plates. Test Compounds were incubated at 1 μM with 1×10^6 cells/mL hepatocytes in DMEM for 0, 30, 60, 120 and 240 minutes. The incubation was carried out with gentle shaking at 37° C. under a humid atmosphere of 95% air/5% CO2. The volume of the incubation mixture was 37 μL with a final 0.1% DMSO. At each of the time points, the incubation was stopped by adding 150 μL quenching solution (100% acetonitrile, 0.1% formic acid containing bucetin as an internal standard for positive ESI mode). Subsequently, the mixtures were vortexed for 20 min and centrifuged at 4,000 RPM at 10° C. The supernatant (80 μL) was transferred to a clean 96-well plate and analyzed by LC-MS/MS. Midazolam at 1 μM with a final 0.1% DMSO was included as a positive control to verify assay performance. The percent parent remaining, intrinsic and predicted hepatic clearance and t1/2 were calculated. All samples were analyzed by LC-MS/MS using an AB Sciex API 4000 instrument, coupled to a Shimadzu LC-20AD LC Pump system. Separation was achieved using a Waters Atlantis T3 dC18 reverse phase HPLC column (20 mm×2.1 mm) at a flow rate of 0.5 mL/min. The mobile phase consisted of 0.1% formic acid in water (solvent A) and 0.1% formic acid in 100% acetonitrile (solvent B). Elution conditions are detailed below.
(§2) The ion optics of each test compound were optimized for their declustering potential (DP), […] (CE), collision-cell exit potential (CXP) and used in a selected ion monitoring experiment in the positive ion mode. The peak area ratio of each test compound to internal standard was then evaluated for stability. The extent of metabolism was calculated based on the disappearance of the test compound, compared to its initial concentration. The initial rates of clearance of the test compound were calculated using the linear regression plot of semi-log % remaining of the compound versus time.
(§3) The predicted hepatic clearance (CLhep) was calculated using the well stirred method with the following formula with CLint(in vivo) normalized based on liver weight: CLint(in vivo)=CLint×Hepatocellularity×liver weight CLhep predicted=(CLint(in vivo)×Qliver)/(CLint(in vivo)+Qliver) Where Qliver ((ml/min/kg) is Liver Blood Flow
(§4) The relevant physiological parameters of liver weight, blood flow, and hepatocellularity for various species are listed below:
(§5) Results are presented in the Table B3 below for the intrinsic clearance (mL/min/kg) and half-life (t1/2).

[2] = Metabolic stability in human hepatocytes; settings: cryopreserved hepatocytes, 1×10^6 cells/mL; for CLint scaled at 1 μM: intrinsic clearance; for half-life at 1 μM: read-out: Human T1/2
Protocol: as §1, §2, §3, §4, §5

[3] = Passive permeability and efflux ratio in Caco-2 cell monolayers; settings: human, Caco-2, 5 μM, pH 7.4, 120 minutes; for Papp A→B at 120 min, 5 μM: apical to basolateral; for Papp B→A at 120 min, 5 μM: basolateral to apical
Protocol: Caco-2 cells (clone C2BBe1) were obtained from American Type Culture Collection (Manassas, VA). Cell monolayers were grown to confluence on collagen-coated, microporous membranes in 12-well assay plates. Details of the plates and their certification are shown below. The permeability assay buffer was Hanks' balanced salt solution containing 10 mM HEPES and 15 mM glucose at a pH of 7.4. The buffer in the receiver chamber also contained 1% bovine serum albumin. The dosing solution concentration was 5 μM of test article in the assay buffer. Cell monolayers were dosed on the apical side (A-to-B) or basolateral side (B-to-A) and incubated at 37° C. with 5% CO2 in a humidified incubator. Samples were taken from the donor and receiver chambers at 120 minutes. Each determination was performed in duplicate. The flux of lucifer yellow was also measured post-experimentally for each monolayer to ensure no damage was inflicted to the cell monolayers during the flux period. All samples were assayed by LC-MS/MS using electrospray ionization. The apparent permeability (Papp) and percent recovery were calculated as follows: Papp=(dCr/dt)×Vr/(A×CA) (1) Percent Recovery=100×((Vr×Cr^final)+(Vd×Cd^final))/(Vd×CN) (2), where, dCr/dt is the slope of the cumulative receiver concentration versus time in μM s^−1; Vr is the volume of the receiver compartment in cm^3; Vd is the volume of the donor compartment in cm^3; A is the area of the insert (1.13 cm^2 for 12-well); CA is the average of the nominal dosing concentration and the measured 120-minute donor concentration in μM; CN is the nominal concentration of the dosing solution in μM; Cr^final is the cumulative receiver concentration in μM at the end of the incubation period; Cd^final is the concentration of the donor in μM at the end of the incubation period. Efflux ratio (ER) is defined as Papp (B-to-A)/Papp (A-to-B).

CLint scaled at 1 μM [1] [mL/min/kg] | half-life at 1 μM [1] [h] | CLint scaled at 1 μM [2] [mL/min/kg] | half-life at 1 μM [2] [h] | Papp A→B at 120 min, 5 μM [3] [×10⁻⁶ cm/s] | Papp B→A at 120 min, 5 μM [3] [×10⁻⁶ cm/s] | SMILES
46.5 ± 2.11 | 1.19 ± 0.054 | 7.99 ± 0.99 | 5.02 ± 0.623 | 1.8 | 18.8 | N#Cc1ccc(COc2cccc(C3CCN(Cc4nc5ccc(-c6nnn[nH]6)cc5n4C[C@@H]4CCO4)CC3)n2)c(F)c1 [Compound 8]
111 ± 2.29 | 0.501 ± 0.0103 | 35.8 ± 1.06 | 1.12 ± 0.0332 | 46.9 | 51.1 | N#Cc1ccc(COc2cccc(C3CCN(Cc4nc5ccc(-c6nc(=O)[nH]o6)cc5n4Cc4cncs4)CC3)n2)c(F)c1 [Compound 13, 3-fluoro-4-(((6-(1-((6-(3-oxo-2,3-dihydro-1,2,4-oxadiazol-5-yl)-1-(thiazol-5-ylmethyl)-1H-benzo[d]imidazol-2-yl)methyl)piperidin-4-yl)pyridin-2-yl)oxy)methyl)benzonitrile]
